Results published in patent US9642895B2, “Peptides for enhancing transdermal delivery” (3M INNOVATIVE PROPERTIES COMPANY, priority 2013, dated 2017).

Legend:
[1] = tested on: Hairless guinea pigs; assay: Phage display library selection for skin penetration, in vivo hairless guinea pig procedure; details: phage-displayed peptide; phages recovered from blood 1 hour after loading on back skin; 48 plaques sequenced
Experimental: (§1) E. coli ER2738 cell culture (800 microliters of an early-log phase prepared as described above) was added to each well of a 96 deep well plate (each well having a 2 mL volume). Single plaque phages were randomly selected from Petri plates prepared as described in the phage titration procedure. A sterilized toothpick was used to remove a plaque from the Petri plate and transfer it to a well in the 96 well plate. The infected E. coli ER2738 cells were incubated for 4 hours at 37° C. with shaking (300 rpm). The liquid cultures were then centrifuged (4000 rpm for 60 min at 4° C.) and an aliquot of the resulting phage supernatant (10 microliters) from each well was sequenced for DNA using the rolling circle amplification method. The DNA sequencing was conducted at MCLAB (South San Francisco, Calif.).
Hairless guinea pigs (200 gram females from Charles River Laboratory, Wilmington, Mass.) were anesthetized in a chamber using 3-5% isoflurane in oxygen or air, and maintained at 1.5-3% isoflurane with a co-axial breathing device (COAX-3 obtained from Viking Medical, Medford Lakes, N.J.). Each animal was placed in lateral recumbency on a thermostatically controlled surface with its nose and mouth inside the anesthetic face mask for the duration of the experiment. During the procedure, the animal was monitored for respiration rate and the level of anesthesia was adjusted as required. The section of the back used for loading a phage library was wiped with a 70% isopropanol in water solution.
A phage display library containing about 10^11 phage particles in 200 microliters of PBS was loaded onto a 1 cm^2 section of skin on the back of the animal using a PIPETMAN Classic pipet. In order to both control the humidity and reduce contamination at the application site, a Hill Top Chamber® (Hill Top Research, St. Petersburg, Fla.) was placed over the application site and attached with adhesive. After 1 hour, 10 mL of blood was bled from the heart. The blood was immediately transferred to a vial containing heparin (1000 USP units per mL). The sample of blood (10 mL) was mixed with 50 mL of E. coli ER2738 cells in LB broth medium (early log phase, OD600=0.5) and then added to 300 mL of soft agar. Equal portions of soft agar containing blood and ER2738 (about 7 mL per plate) were added to fifty LB/IPTG/X-gal/tetracycline Petri plates. The plates were incubated overnight at 37° C. The resulting single plaque phages were randomly picked from the agar plate and processed for phage DNA sequencing using the procedure described above. DNA sequences were successfully obtained from 48 of the 96 isolated phage plaques.

[2] = tested on: human cadaver skin; assay: Phage display library selection for skin penetration using tape stripping; assay type: in vitro ADME; details: phage-displayed peptide; phages recovered from tape strips 21-24 and remaining skin after 4 rounds of selection; 57 plaques sequenced
Experimental: (§2) Human cadaver skin was stored frozen. Prior to using, the frozen sections were placed in PBS and warmed to room temperature. The phage libraries or synthesized peptide sequences were applied to the stratum corneum side of the skin sample.
A tube containing LB medium (2 mL) and tetracycline (at a concentration of 20 μg/mL) was inoculated with E. coli ER2738 cells and then incubated overnight at 37° C. with shaking (200 rpm). An aliquot (100 microliter) was added to 20 mL of fresh LB medium containing 20 μg/mL of tetracycline. The culture was incubated at 37° C. with shaking (200 rpm) of the flask and the cells were grown to the early-log phase (OD600=0.5). Next, the phage sample was added and the culture was maintained for 4 hours at 37° C. with shaking of the flask.
E. coli ER2738 cells were removed from the phage amplified culture sample by centrifugation at 8000 rpm for 10 minutes. The resulting supernatant solution was added to the PEG/NaCl Phage precipitating solution (at a concentration of […]) and then maintained at 4° C. for 2 hours. The resulting phage precipitate was recovered by centrifuging the sample (8000 rpm for 30 min), removing the supernatant, and re-suspending the phage pellet in 2 mL of Tris-buffered saline (Tris buffered saline reagent prepared as 50 mM Tris-HCl in 150 mM NaCl buffered saline, pH 7.5). The amplified phage product was stored at 4° C.
LB Broth Medium (5-10 mL) was inoculated with a single colony of E. coli ER2738 and incubated with shaking (200 rpm) at 37° C. until the cells reached the early-log growth phase (OD600=0.5). The culture medium was then dispensed into multiple microfuge tubes (200 microliters per microfuge tube with one tube prepared for each phage dilution). Ten fold serial dilutions of amplified phage product in LB broth medium were prepared and a 10 microliter aliquot from each dilution was added to a separate microfuge tube containing culture medium. Each tube was vortexed and incubated at room temperature for 1-5 minutes.
The contents of each microfuge tube were transferred to a corresponding culture tube containing 3mL of soft agar maintained at 45° C. Each culture tube was then vortexed and the soft agar was poured onto a corresponding pre-warmed (37° C.) LB/IPTG/X-gal\tetraycline Petri plate. The resulting plates were gently tilted and rotated in order to evenly spread the soft agar on the plates. The plates were cooled for five minutes, inverted, and then incubated overnight at 37° C. Plates having approximately 100 plaques were counted providing an adjustment for the dilution factor. Single plaque phages on the plates were selected and further processed for DNA sequencing.
as §1
Each phage display library (200 microliters in PBS) was applied to a 1 cm^2 section of human cadaver skin using a PIPETMAN Classic pipet (Gilson Inc., Middleton, Wis.). Adhesive tape was used to form a square frame that defined the application site. After 1 hour, the application site was washed with PBS to remove phages remaining on the skin surface. Tape stripping of the skin sample was accomplished using Scotch® box tape (3M Company, Maplewood, Minn.). […]

[3] = tested on: hairless guinea pig skin; assay: In vitro skin penetration enhancement of FITC, tape stripping; assay type: in vitro ADME; details: peptide 1 mg/mL with FITC sodium salt 10 mg/mL in PBS; 1 hour at room temperature; UV 340 nm; spot indicates penetration of FITC to the 20th tape strip
Experimental: An in vitro assay to test for skin penetration enhancement was conducted using hairless guinea pig skin. A full skin sample from the back region of the animal was used. An individual test sample for each peptide in Table 3 was prepared containing the peptide (at a concentration of 1 mg/mL), FITC sodium salt (at a concentration of 10 mg/mL), and PBS (200 microliters). The control sample was prepared containing only FITC sodium salt (at a concentration of 10 mg/mL), and PBS (200 microliters). Each peptide test sample was applied to a separate 1 cm^2 section on the stratum corneum side of the guinea pig skin using a PIPETMAN Classic pipet. In the same manner, the control sample was applied. The treated skin samples were covered, maintained at room temperature for 1 hour and then washed with deionized water for 5 minutes to remove any FITC remaining on the skin surface. Tape stripping of each skin application site was accomplished using Scotch® box tape. The tape was placed on the skin so that it covered the entire surface of an individual application site (width of tape strip approximately 1.5 cm). For each tape stripping procedure, the tape was secured to the skin with three cycles (3 forward and 3 backward passes) of a 300 g hand held roller. Next the tape was grasped by hand at one end and quickly peeled from the skin surface using a single motion. The exact same procedure of tape stripping was repeated for a total of 20 tape stripping operations at each application site. The 20th tape strip for each sample was imaged for FITC using ultraviolet light at 340 nm. The presence of a fluorescent spot on the tape indicated penetration of FITC to the 20th tape strip.

[4] = tested on: human cadaver skin; assay: In vitro skin penetration enhancement of GFP, tape stripping; assay type: in vitro ADME; details: 0.1 mg peptide with GFP 2.55 mg/mL in PBS; 2 hours at room temperature; 20 tape strips; control without peptide reached tape strip 6
Experimental: as §2
An in vitro assay to test for skin penetration enhancement was conducted using human cadaver skin. Two test samples (A and B) and a control sample were prepared. Test sample A contained GFP (at a concentration of 2.55 mg/mL), 0.1 mg of the peptide ACLDNTFRAC (Sequence ID No: 6, Table 2), and PBS (50 microliters). Test sample B contained GFP (at a concentration of 2.55 mg/mL), 0.1 mg of the peptide SHSACLDNTFRACGGGS (Sequence ID No: 14, Table 3), and PBS (50 microliters). The control sample contained GFP (at a concentration of 2.55 mg/mL) and PBS (100 microliters). Each sample was applied to a separate 1 cm^2 section of human cadaver skin using a PIPETMAN classic pipet. Adhesive tape was used to form a square frame that defined each application site. The treated skin samples were covered, maintained at room temperature for 2 hours, and then washed with deionized water for 5 minutes to remove any GFP remaining on the skin surface. Tape stripping of each skin application site was accomplished using Scotch® box tape. […]

[5] = tested on: hairless guinea pig skin; assay: In vitro penetration of FITC through full skin; assay type: in vitro ADME; details: peptide 2.5 mg/mL with FITC sodium salt 0.05 mg/mL in PBS; 3 hours at room temperature then 4° C. overnight; UV 340 nm
Experimental: An in vitro assay to test for skin penetration enhancement was conducted using hairless guinea pig skin. A full skin sample from the back region of the animal was used. The test sample was prepared containing FITC sodium salt (at a concentration of 0.05 mg/mL), the peptide SHSACLDNTFRACG (Sequence ID No: 17) at a concentration of 2.5 mg/mL, and PBS (40 microliters). The control sample was prepared containing only FITC sodium salt (at a concentration of 0.05 mg/mL), and PBS (40 microliters). Each sample was applied to a separate 0.25 cm^2 section on the stratum corneum side of the guinea pig skin using a PIPETMAN Classic pipet. The treated skin samples were covered, maintained at room temperature for 3 hours and then at 4° C. overnight. The side of the skin sample opposite the application side was visually examined under ultraviolet light (340 nm). Visualization of a fluorescent spot on the side of the skin directly opposite from the application site was used to confirm penetration of FITC through the skin. […] For the control sample a fluorescent spot was not visualized on the side of the skin directly opposite from the application site.

Substance	Frequency of Sequence in Plaques from Hairless Guinea Pig Study [1]	Frequency of Sequence in Plaques from Tape Stripping of Human Cadaver Skin Study [2]	Fluorescent Spot Visualized on Tape Strip #20 [3]	other results
8 (ASSDIPLFTRY; Phage display library peptides) [compound 8]	4 n/48	1 n/57		
5 (AKSSWWGRAYWY; Phage display library peptides) [compound 5]	0 n/48	1 n/57		
10 (SHSACSLPWDASCGGGS; Phage display library peptides) [compound 10]			yes	
3 (ACDTPRLTHC; Phage display library peptides) [compound 3]	0 n/48	2 n/57		
15 (SHSASSTTLNTLAQWPA; Phage display library peptides) [compound 15]			yes	
4 (TWTQAWPWGWTW; Phage display library peptides) [compound 4]	0 n/48	1 n/57		
7 (ASSTTLNTLAQ; Phage display library peptides) [compound 7]	5 n/48	9 n/57		
2 (ACSLPWDASC; Phage display library peptides) [compound 2]	0 n/48	1 n/57		
12 (SHSTWTQAWPWGWTWGGGS; Phage display library peptides) [compound 12]			yes	
14 (SHSACLDNTFRACGGGS; Phage display library peptides) [compound 14]			yes	deepest penetration of the green fluorescent signal of GFP in the skin sample (tape strip number) [4]: 20
13 (SHSAKSSWWGRAYWYGGGS; Phage display library peptides) [compound 13]			yes	
17 (SHSACLDNTFRACG; Phage display library peptides) [compound 17]				fluorescent spot on the side of the skin directly opposite from the application site (penetration of FITC through the skin) [5]: a fluorescent spot was visualized
6 (ACLDNTFRAC; Phage display library peptides) [compound 6]	11 n/48	2 n/57		deepest penetration of the green fluorescent signal of GFP in the skin sample (tape strip number) [4]: 14
1 (ACLPGVLGSC; Phage display library peptides) [compound 1]	0 n/48	1 n/57		
16 (SHSASSDIPLFTRYGGGS; Phage display library peptides) [compound 16]			yes	
